According to patent US12617831B2 (UNIVERSITE D'ANGERS, priority 2019, dated 2026):
Where two headings read alike, the source gives them in different places.

Assays:
[1] = test system: Murine MC3T3-E1 cells; experiment: Collagen maturity assay in MC3T3-E1 cultures (Example 2); type: cell-based; conditions: compared with [D-Ala^2]GIP1-30NH2 and [Gly^2]GLP-2
Description: At confluence, the propagation medium was replaced by the differentiation medium containing αMEM supplemented with 5% FBS, 5% bovine calf serum, 100 U/mL penicillin, 100 μg/mL streptomycin, 50 μg/ml ascorbic acid and various concentrations of analogues. This day was considered as day 1. The differentiation medium was replenished every two days. […] Cultures were rinsed at least six times with milliQ water, fixed in absolute ethanol, scrapped off the culture dish and transferred onto BaF2 windows where they were air-dried. Integrity of the collagen extracellular matrix was verified by comparing the obtained Fourier transform infrared spectrum with those of commercial collagen. Spectral analysis was performed using a Bruker Vertex 70 spectrometer (Bruker optics, Ettlingen, Germany) interfaced with a Bruker Hyperion 3000 infrared microscope equipped with a standard single element Mercury Cadmium Telluride (MCT) detector. Infrared spectra were recorded at a resolution of 4 cm^−1, with an average of 32 scans in transmission mode. Background spectral images were collected under identical conditions from the same BaF2 windows at the beginning and end of each experiment to ensure instrument stability. At least 20 spectra were acquired for each condition and analyzed with a lab-made routine script in Matlab R2016b (The Mathworks, Natick, MA).

[2] = test system: ovariectomy-induced bone loss in mice; experiment: Trabecular bone strength, compression test of second lumbar vertebra, ovariectomized mice; type: in vivo; conditions: OVX mice, vs vehicle; GL-0001 25, GL-0007 25 and 100 nmoles/kg/day; zoledronic acid once 100 μg/kg
Description: At 16 weeks of age, ALZET osmotic pumps (model number 2006, Durect Corp., Cupertino, CA) filled with the below saline or peptide were implanted subcutaneously between the two scapula under general anesthesia in 32 mice. Successful filling of pumps was verified by weighting the pump before and after filling. At 20 weeks of age, ALZET osmotic pumps were replaced by similar pumps to ensure delivery for four new weeks. […] This dose and regimen of zoledronic acid was equivalent to the 5 mg infusion approved for the treatment of post-menopausal osteoporosis in humans. Compression experiments were performed on L2. Briefly, vertebral bodies were carefully dissected and glued with cyanoacrylate glue on a Plexiglas plate and then incubated in saline at 4° C. until use the next day. L2 vertebral bodies were compressed to failure at a displacement rate of 1 mm/min using an Instron 5942 device. Load and displacement of the upper plateau were recorded at a sampling rate of 100 Hz. Maximum load and stiffness were computerized from load-displacement curves.

[3] = test system: MC3T3-E1 subclone 4 cells; type: cell-based, murine
Description: Briefly, MC3T3-E1 subclone 4 cells have been grown and propagated in α-MEM supplemented with 5% fetal bovine serum (FBS), 5% bovine calf serum (BCS), 100 U/mL penicillin, and 100 μg/mL streptomycin in a humidified atmosphere enriched with 5% CO2 at 37° C. […] This day was considered as day 1. The differentiation medium was replenished every two days. […] Cultures were rinsed at least six times with milliQ water, fixed in absolute ethanol, scrapped off the culture dish and transferred onto BaF2 windows where they were air-dried. Integrity of the collagen extracellular matrix was verified by comparing the obtained Fourier transform infrared spectrum with those of commercial collagen. Spectral analysis was performed using a Bruker Vertex 70 spectrometer (Bruker optics, Ettlingen, Germany) interfaced with a Bruker Hyperion 3000 infrared microscope equipped with a standard single element Mercury Cadmium Telluride (MCT) detector. Calibration of the infrared spectrometer is done once a week with a polystyrene film standard (Bruker optics). Infrared spectra were recorded at a resolution of 4 cm^-1, with an average of 32 scans in transmission mode. Background spectral images were collected under identical conditions from the same BaF2 windows at the beginning and end of each experiment to ensure instrument stability. At least 5 spectra were acquired for each condition and analyzed with a lab-made routine script (version 2.0) in Matlab R2016b (The Mathworks, Natick, MA). […] For GIP and GLP-2 dataset, the inventors used the collagen maturity data previously acquired and analyzed. First of all, collagen maturity obtained in control cultures, i.e. in the absence of double GIP/GLP-2 analogues, were averaged and subtracted to the all dataset. […] For each concentration of peptide, the mean, SD and number of events were computed. […] The GraphPad Prism analysis consisted in: […] Statistical Analysis […] Data are represented as mean±SD.

[4] = test system: Murine Raw 264.7 cells; type: cell-based; conditions: for IC50 computed from curve fitting of osteoclastogenesis vs. peptide concentration: Raw 264.7, RANKL 10 ng/ml, 110 h, * values determined from previous experiments
Description: Murine Raw 264.7 cells were grown and expanded in propagation medium containing Dulbecco's modified Eagle medium (DMEM-Gibco) supplemented with 10% fetal bovine serum (FBS-Lonza), 100 U/mL penicillin and 100 μg/mL streptomycin (Gibco) in a humidified atmosphere enriched with 5% CO2 at 37° C. The first passage after thawing Raw 264.7 cells was considered as passage 1. Cells were used up to passage 8. […] Cultures were rinsed three times in distilled water and the residual activity was inhibited by 4% NaF (Sigma-Aldrich) for 30 min. Cells were then rinsed in distilled water and allowed to dry. TRAcP positive cells, with more than three nuclei, were identified as osteoclasts. The number of newly generated osteoclasts was assessed using light microscopic examination by a histologist that was blinded to the treatment intervention. […] For each concentration of peptide, the mean, SD and number of events were computed.

Row | Structure (SMILES) | potency versus native peptides, based on osteoclast formation in vitro and collagen maturity in vitro [1] | bone stiffness, compression of second lumbar vertebra [2] | EC50 [3] [nM] | Emax for dose-effect curves on collagen maturity ([3]; MC3T3-E1, day 14) [%] | EC50 [4] [nM] | IC50 computed from curve fitting of osteoclastogenesis vs. peptide concentration [4] [nM] | EC50 ([3]; MC3T3-E1, day 14, mean ± SD of 5 individual experiments, read-out: EC50 for dose-effect curves on collagen maturity) [nM] | EC50 ([4]; Raw 264.7, * data obtained in previous experiments, read-out: EC50 of inhibitory effect on osteoclastogenesis) [nM]
1 | CC[C@H](C)[C@H](NC(=O)[C@H](CO)NC(=O)[C@H](Cc1ccccc1)NC(=O)[C@H](CC(=O)O)NC(=O)[C@H](CO)NC(=O)CNC(=O)[C@H](Cc1ccccc1)NC(=O)[C@H](CO)NC(=O)CNC(=O)[C@H](CCC(=O)O)NC(=O)CNC(=O)[C@@H](N)Cc1c[nH]cn1)C(=O)N[C@@H](C)C(=O)N[C@@H](CC(C)C)C(=O)N[C@@H](CC(=O)O)C(=O)N[C@@H](CCCCN)C(=O)N[C@@H](CC(C)C)C(=O)N[C@@H](C)C(=O)N[C@@H](C)C(=O)N[C@@H](CCCNC(=N)N)C(=O)N[C@@H](CC(=O)O)C(=O)N[C@@H](Cc1ccccc1)C(=O)N[C@H](C(=O)N[C@@H](CC(N)=O)C(=O)N[C@@H](Cc1c[nH]c2ccccc12)C(=O)N[C@@H](CC(C)C)C(=O)N[C@@H](CC(C)C)C(=O)N[C@@H](CCC(N)=O)C(=O)N[C@H](C(=O)N[C@@H](CCCCN)C(N)=O)[C@@H](C)O)C(C)C [GL-0007] | better potency than each native peptide | significantly reduced | 0.0259 ± 0.0145 | 232.3 | 0.0062 | 0.0062 |  | 
2 | CC[C@H](C)[C@H](NC(=O)[C@H](CO)NC(=O)[C@H](CCSC)NC(=O)[C@H](CC(=O)O)NC(=O)[C@H](CO)NC(=O)CNC(=O)[C@H](Cc1ccccc1)NC(=O)[C@H](CO)NC(=O)CNC(=O)[C@H](CCC(=O)O)NC(=O)CNC(=O)[C@@H](N)Cc1c[nH]cn1)C(=O)N[C@@H](C)C(=O)N[C@@H](CC(C)C)C(=O)N[C@@H](CC(=O)O)C(=O)N[C@@H](CCCCN)C(=O)N[C@@H](CC(C)C)C(=O)N[C@@H](C)C(=O)N[C@@H](C)C(=O)N[C@@H](CCCNC(=N)N)C(=O)N[C@@H](CC(=O)O)C(=O)N[C@@H](Cc1ccccc1)C(=O)N[C@H](C(=O)N[C@@H](CC(N)=O)C(=O)N[C@@H](Cc1c[nH]c2ccccc12)C(=O)N[C@@H](CC(C)C)C(=O)N[C@@H](CC(C)C)C(=O)N[C@@H](CCC(N)=O)C(=O)N[C@H](C(=O)N[C@@H](CCCCN)C(=O)N[C@H](C(=O)N[C@H](C(=O)N[C@@H](CC(=O)O)C(=O)O)[C@@H](C)O)[C@@H](C)CC)[C@@H](C)O)C(C)C [GL-0001] | better potency than each native peptide | significantly reduced |  | 207.0 |  | 0.0142 | 0.0262 ± 0.0171 | 0.0142
